Laboratory results taken from patent US10226045B2, “Azoline compounds” (priority 2014, dated 2019).

How the values were obtained:
Type in all cases: in vivo
[1] = test system: Boll Weevil (Anthonomus grandis); experiment: Boll weevil, insect diet microtiter plate test; conditions: 120 h, 2500 ppm, eggs on sprayed insect diet, egg and larval mortality after 5 days, in comparison with untreated controls, read-out: mortality
Protocol: B.5 Boll Weevil (Anthonomus grandis)
For evaluating control of boll weevil (Anthonomus grandis) the test unit consisted of 96-well-microtiter plates containing an insect diet and 5-10 A. grandis eggs.
The compounds were formulated using a solution containing 75% v/v water and 25% v/v DMSO. Different concentrations of formulated compounds were sprayed onto the insect diet at 5 μl, using a custom built micro atomizer, at two replications.
After application, microtiter plates were incubated at about 25±1° C. and about 75±5% relative humidity for 5 days. Egg and larval mortality was then visually assessed.

[2] = test system: Green Peach Aphid (Myzus persicae); experiment: Green peach aphid, systemic test on artificial diet in microtiter plates; conditions: 72 h, 2500 ppm, adult aphids on treated artificial diet, 3 days, in comparison with untreated controls, read-out: mortality
From the text: B.2 Green Peach Aphid (Myzus persicae)
For evaluating control of green peach aphid (Myzus persicae) through systemic means the test unit consisted of 96-well-microtiter plates containing liquid artificial diet under an artificial mem brane.
The compounds were formulated using a solution containing 75% v/v water and 25% v/v DMSO. Different concentrations of formulated compounds were pipetted into the aphid diet, using a custom built pipetter, at two replications.
After application, 5-8 adult aphids were placed on the artificial membrane inside the microtiter plate wells. The aphids were then allowed to suck on the treated aphid diet and incubated at about 23±1° C. and about 50±5% relative humidity for 3 days. Aphid mortality and fecundity was then visually assessed.

[3] = test system: Southern Armyworm (Spodoptera eridania); experiment: Southern armyworm, sprayed lima bean plants; conditions: 96 h, 1 ppm, larvae on sprayed lima bean plants, 4 days after treatment, in comparison with untreated controls, read-out: mortality
Protocol: B.10 Southern Armyworm (Spodoptera eridania)
The active compounds were formulated in cyclohexanone as a 10,000 ppm solution supplied in tubes. The tubes were inserted into an automated electrostatic sprayer equipped with an atomizing nozzle and they served as stock solutions for which lower dilutions were made in 50% acetone:50% water (v/v). A nonionic surfactant (Kinetic®) was included in the solution at a volume of 0.01% (v/v).
Lima bean plants (variety Sieva) were grown 2 plants to a pot and selected for treatment at the 1st true leaf stage. Test solutions were sprayed onto the foliage by an automated electrostatic plant sprayer equipped with an atomizing spray nozzle. The plants were dried in the sprayer fume hood and then removed from the sprayer. Each pot was placed into perforated plastic bags with a zip closure. About 10 to 11 armyworm larvae were placed into the bag and the bags zipped closed. Test plants were maintained in a growth room at about 25° C. and about 20-40% relative humidity for 4 days, avoiding direct exposure to fluorescent light (24 hour photoperiod) to prevent trapping of heat inside the bags. Mortality and reduced feeding were assessed 4 days after treatment, compared to untreated control plants.

[4] = test system: Diamond Back Moth (Plutella xylostella); experiment: Diamond back moth, cabbage leaf dip test; conditions: foliar, 300 ppm, 3rd instar larvae on dipped cabbage leaves, 72 hours after treatment, in comparison with untreated controls, read-out: mortality
Protocol: B.1 Diamond Back Moth (Plutella xylostella)
The active compound was dissolved at the desired concentration in a mixture of 1:1 (vol:vol) distilled water:aceteone. Surfactant (Kinetic HV) was added at a rate of 0.01% (vol/vol). The test solution was prepared at the day of use.
Leaves of cabbage were dipped in test solution and air-dried. Treated leaves were placed in petri dishes lined with moist filter paper and inoculated with ten 3rd instar larvae. Mortality was recorded 72 hours after treatment.

O=C(NC1CS(=O)(=O)C1)c1ccc(C2=NCC(c3cc(Cl)c(F)c(Cl)c3)(C(F)(F)F)C2)c2c1CCC2 (stereo not shown) [Compound 2-3, 7-[3-(3,5-Dichloro-4-fluoro-phenyl)-3-(trifluoromethyl)-2,4-dihydropyrrol-5-yl]-N-(1,1-dioxothietan-3-yl)indane-4-carboxamide]
≥ 75%: mortality at 2500 ppm [1] | mortality at 2500 ppm [2] | mortality at 1 ppm [3] | mortality at 300 ppm [4]
